Assay results as given in patent US12103916B2, “Antifungal compounds” (University of Kentucky Research Foundation, priority 2016, dated 2024).
Values after ≈ are worked out from the molar mass of the structure shown. Like-named read-outs stand apart in the source and are kept apart here.

Key:
[1] = system: C. albicans ATCC MYA-1237(R); assay: MIC determination, strain F; format: cell-based, Candida albicans; details: strain F, AmB; for MIC: Candida albicans
From the text: (§1) For all of our azole derivatives we report their MIC-0 values against C. albicans ATCC 10231 (strain A) and all Aspergillus strains (K-M), which correspond to complete growth inhibition of these fungi. […] The MIC values presented for these five control drugs were either tested herein or correspond to our previously published data^5, 16 as indicated in Table 1.
(§2) Antifungal activity in the absence or presence of serum.
(§3) It is important to note that all comparisons to follow will be done by using the MIC values reported in μg/mL as the data were collected that way. However, we also present in parentheses in Table 2 the corresponding values in micromolar.
(§4) In this manuscript, we performed all activity comparisons by using the MIC values reported in μg/mL (Note: the corresponding MIC values are also provided in μM into parentheses in Tables 1, 2, S1, and S2).

[2] = system: C. albicans ATCC 64124; assay: MIC determination, strain B; format: cell-based, Candida albicans; details: strain B, AmB; for MIC: Candida albicans, ATCC64124
Description: (§5) The antifungal activity of our new azole compounds 1-9 and 24-41 was first evaluated against a panel of seven Candida albicans strains (A-G), three non-albicans Candida strains […], and three Aspergillus strains (K-M) in a concentration range of 0.03-31.2 μg/mL (Table 1). […] For all of our azole derivatives we report their MIC-0 values against C. albicans ATCC 10231 (strain A) and all Aspergillus strains (K-M), which correspond to complete growth inhibition of these fungi. […] The commercially available antifungals AmB, FLC, ITC, POS, and VOR were used as reference drugs for comparison. The MIC values presented for these five control drugs were either tested herein or correspond to our previously published data^5, 16 as indicated in Table 1.
(§6) Antifungal activity in the absence or presence of serum. The antifungal activity of the newly prepared alkylated piperazine/morpholine-azole hybrids 16-28, of intermediate 14 that we used to verify that only final compounds exert antifungal activity, as well as that of alkylated piperazine/morpholine derivatives 1-10 were first evaluated against a panel of seven C. albicans (ATCC 10231 (A), ATCC 64124(R) (B), ATCC MYA-2876(S) (C), ATCC 90819(R) (D), ATCC MYA-2310(S) (E), ATCC MYA-1237(R) (F), and ATCC MYA-1003(R) (G)), three non-albicans Candida (C. glabrata ATCC 2001 (H), C. krusei ATCC 6258 (I), and C. parapsilosis ATCC 22019 (J)), and three Aspergillus (A. flavus ATCC MYA-3631 (K), A. nidulans ATCC 38163 (L), and A. terreus ATCC MYA-3633 (M)) strains using a concentration range of 0.03-31.3 μg/mL (Table 2).
(§7) Commercially available antifungal agents such as AmB, CAS, FLC, and VOR were used as positive controls for comparison. […] It is important to note that all comparisons to follow will be done by using the MIC values reported in μg/mL as the data were collected that way. However, we also present in parentheses in Table 2 the corresponding values in micromolar.
(§8) We used the commercially available antifungal agents such as AmB, caspofungin (CAS), FLC, and VOR as positive controls for comparison. For derivatives 5-16 as well as the reference drugs AmB and CAS, we reported MIC-0 values, which correspond to no visible growth. […] In this manuscript, we performed all activity comparisons by using the MIC values reported in μg/mL (Note: the corresponding MIC values are also provided in μM into parentheses in Tables 1, 2, S1, and S2).

[3] = system: C. albicans ATCC MYA-2310(S); assay: MIC determination, strain E; format: cell-based, Candida albicans; details: strain E, AmB; for MIC: Candida albicans
Description: as §5, §6, §7, §8

[4] = system: Candida albicans ATCC 10231; assay: MIC determination, strain A; format: cell-based; details: for MIC: Candida albicans, ATCC10231
From the text: as §1, §2, §3, §4

[5] = system: C. albicans ATCC MYA-1003(R); assay: MIC determination, strain G; format: cell-based, Candida albicans; details: strain G, AmB; for MIC: Candida albicans
From the text: as §1, §2, §3, §4

[6] = system: BEAS-2B cell line; assay: Cytotoxicity assay, BEAS-2B; details: Ex.1 series, 15.6 μg/mL
Description: The positive control consisted of cells treated with Triton X-100® (TX, 12.5% v/v). The negative control consisted of cells treated with DMSO (no drug).
The positive control consisted of cells treated with Triton X-100® (TX, 20% v/v, pink). The negative control consisted of cells treated with DMSO (no drug, green). The experiments were performed in duplicate.
In vitro cytotoxicity assay.

[7] = system: C. albicans ATCC 90819(R); assay: MIC determination, strain D; format: cell-based, Candida albicans; details: strain D, AmB; for MIC: Candida albicans, ATCC90819
Description: as §5, §6, §7, §8

[8] = system: Candida glabrata ATCC 2001; assay: MIC determination, strain H; format: cell-based; details: strain H, AmB; for MIC: Nakaseomyces glabratus, ATCC2001
Description: as §5, §6, §7, §8

[9] = system: Candida krusei ATCC 6258; assay: MIC determination, strain I; format: cell-based; details: strain I, AmB; for MIC: Pichia kudriavzevii, ATCC6258
Description: as §5, §6, §7, §8

[10] = system: C. albicans ATCC MYA-2876(S); assay: MIC determination, strain C; format: cell-based, Candida albicans; details: strain C, AmB; for MIC: Candida albicans
Description: as §5, §6, §7, §8

[11] = system: Aspergillus terreus ATCC MYA-3633; assay: MIC determination, strain M; format: cell-based; details: for MIC: Aspergillus terreus
From the text: as §1, §2, §3, §4

[12] = system: Aspergillus flavus ATCC MYA-3631; assay: MIC determination, strain K; format: cell-based; details: Table 2, all compounds and controls
From the text: as §1, §2, §3, §4

[13] = system: Candida parapsilosis ATCC 22019; assay: MIC determination, strain J; format: cell-based; details: Lodderomyces parapsilosis, ATCC22019, Table 2, strain J, Ex.2 compounds, AmB, CAS
Description: as §5, §6, §7, §8

[14] = system: Aspergillus nidulans ATCC 38163; assay: MIC determination, strain L; format: cell-based; details: ATCC38163, Table 2, strain L, all compounds and controls
From the text: as §1, §2, §3, §4

[15] = Table 2, all compounds and controls
[16] = Table 2, Ex.2 compounds, CAS, read-out: MIC (MIC-0)
[17] = Table 2, Ex.2 compounds, CAS, read-out: MIC (MIC-0), in parentheses
[18] = read-out: MIC (MIC-0), in parentheses

SMILES: C[C@@H]1[C@H](O)[C@@H](C)/C=C/C=C/C=C/C=C/C=C/C=C/C=C/[C@H](O[C@@H]2O[C@H](C)[C@@H](O)[C@H](N)[C@@H]2O)C[C@@H]2O[C@](O)(C[C@@H](O)C[C@@H](O)[C@H](O)CC[C@@H](O)C[C@@H](O)CC(=O)O[C@H]1C)C[C@H](O)[C@H]2C(=O)O [AmB, amphotericin B]
- MIC (MIC-0) ([1]; Table 1): 3.9 µg/mL (≈ 4.22 µM)
- MIC (MIC-0) ([1]; Table 2, Ex.2 compounds, CAS): 3.9 µg/mL (≈ 4.22 µM)
- MIC (MIC-0), in parentheses ([1]; Table 2, Ex.2 compounds, CAS): (4.2) micromolar
- MIC (MIC-0) ([2]; Table 1): 3.9 µg/mL (≈ 4.22 µM)
- MIC (MIC-0) ([2]; Table 2, Ex.2 compounds, CAS): 3.9 µg/mL (≈ 4.22 µM)
- MIC (MIC-0), in parentheses ([2]; Table 2, Ex.2 compounds, CAS): (4.2) micromolar
- MIC (MIC-0) ([3]; Table 1): 1.95 µg/mL (≈ 2.11 µM)
- MIC (MIC-0) ([3]; Table 2, Ex.2 compounds, CAS): 1.95 µg/mL (≈ 2.11 µM)
- MIC (MIC-0), in parentheses ([3]; Table 2, Ex.2 compounds, CAS): (2.1) micromolar
- MIC (MIC-0) ([4]; Table 1, strain A, Ex.1 compounds 1-9, 24-41 and AmB, complete growth inhibition): 3.9 µg/mL (≈ 4.22 µM)
- MIC (MIC-0) ([4]; Table 2, strain A, Ex.2 compounds 1-10, 14, 16-28, AmB, CAS, no visible growth): 3.9 µg/mL (≈ 4.22 µM)
- MIC (MIC-0), in parentheses ([4]; Table 2, strain A, Ex.2 compounds, AmB, CAS): (4.2) micromolar
- MIC, Candida albicans ATCC 10231 (A) (+10% FBS) ([4]; Table 3, Ex.2 compounds, +10% FBS): 7.8 µg/mL (≈ 8.44 µM)
- MIC, Candida albicans ATCC 10231 (A) (no FBS) ([4]; Table 3, Ex.2 compounds, no FBS): 3.9 µg/mL (≈ 4.22 µM)
- MIC (MIC-0) ([5]; Table 1): 3.9 µg/mL (≈ 4.22 µM)
- MIC (MIC-0) ([5]; Table 2, Ex.2 compounds, CAS): 3.9 µg/mL (≈ 4.22 µM)
- MIC (MIC-0), in parentheses ([5]; Table 2, Ex.2 compounds, CAS): (4.2) micromolar
- cell survival [6]: 30%
- MIC (MIC-0) ([7]; Table 1): 0.975 µg/mL (≈ 1.06 µM)
- MIC (MIC-0) ([7]; Table 2, Ex.2 compounds, CAS): 0.975 µg/mL (≈ 1.06 µM)
- MIC (MIC-0), in parentheses ([7]; Table 2, Ex.2 compounds, CAS): (1.1) micromolar
- MIC (MIC-0) ([8]; Table 1): 1.95 µg/mL (≈ 2.11 µM)
- MIC (MIC-0) ([8]; Table 2, Ex.2 compounds, CAS): 1.95 µg/mL (≈ 2.11 µM)
- MIC (MIC-0), in parentheses ([8]; Table 2, Ex.2 compounds, CAS): (2.1) micromolar
- MIC (MIC-0) ([9]; Table 1): 3.9 µg/mL (≈ 4.22 µM)
- MIC (MIC-0) ([9]; Table 2, Ex.2 compounds, CAS): 3.9 µg/mL (≈ 4.22 µM)
- MIC (MIC-0), in parentheses ([9]; Table 2, Ex.2 compounds, CAS): (4.2) micromolar
- MIC (MIC-0) ([10]; Table 1): 1.95 µg/mL (≈ 2.11 µM)
- MIC (MIC-0) ([10]; Table 2, Ex.2 compounds, CAS): 1.95 µg/mL (≈ 2.11 µM)
- MIC (MIC-0), in parentheses ([10]; Table 2, Ex.2 compounds, CAS): (2.1) micromolar
- MIC (MIC-0) ([11]; Table 1, Ex.1 compounds and AmB, complete growth inhibition): 3.9 µg/mL (≈ 4.22 µM)
- MIC (MIC-0) [11, 15]: 3.9 µg/mL (≈ 4.22 µM)
- MIC (MIC-0), in parentheses [11, 15]: (4.2) micromolar

SMILES: CC[C@H](C)C[C@H](C)CCCCCCCCC(=O)N[C@H]1C[C@@H](O)[C@@H](NCCN)NC(=O)[C@@H]2[C@@H](O)CCN2C(=O)[C@H]([C@H](O)CCN)NC(=O)[C@H]([C@H](O)[C@@H](O)c2ccc(O)cc2)NC(=O)[C@@H]2C[C@@H](O)CN2C(=O)[C@H]([C@@H](C)O)NC1=O [CAS, caspofungin]
- MIC [1, 16]: 0.24 µg/mL
- MIC [1, 17]: 0.2 µM
- MIC [2, 16]: 0.24 µg/mL
- MIC [2, 17]: 0.2 µM
- MIC [3, 16]: 0.12 µg/mL
- MIC [3, 17]: 0.1 µM
- MIC ([12]; read-out: MIC (MIC-0)): > 31.3 µg/mL
- MIC [12, 18]: > 25.8 µM
- MIC ([4]; Table 2, strain A, Ex.2 compounds 1-10, 14, 16-28, AmB, CAS, no visible growth, read-out: MIC (MIC-0)): 0.975 µg/mL
- MIC ([4]; Table 2, strain A, Ex.2 compounds, AmB, CAS, read-out: MIC (MIC-0), in parentheses): 0.8 µM
- MIC [5, 16]: 0.48 µg/mL
- MIC [5, 17]: 0.4 µM
- MIC [7, 16]: 0.12 µg/mL
- MIC [7, 17]: 0.1 µM
- MIC [8, 16]: 0.06 µg/mL
- MIC [8, 17]: 0.05 µM
- MIC [9, 16]: 0.48 µg/mL
- MIC [9, 17]: 0.4 µM
- MIC ([13]; read-out: MIC (MIC-0)): 1.95 µg/mL
- MIC [13, 18]: 1.6 µM
- MIC [10, 16]: 0.06 µg/mL
- MIC [10, 17]: 0.05 µM
- MIC ([11]; Table 2, all compounds and controls, read-out: MIC (MIC-0)): > 31.3 µg/mL
- MIC ([11]; Table 2, all compounds and controls, read-out: MIC (MIC-0), in parentheses): > 25.8 µM
- MIC ([14]; read-out: MIC (MIC-0)): > 31.3 µg/mL
- MIC [14, 18]: > 25.8 µM
